According to article PMC7549094 (Journal of Medicinal Chemistry, 2020):

Legend:
[1] = system: intramacrophage L. donovani amastigotes; experiment: L. donovani amastigote proliferation within primary mouse macrophages; assay type: cell-based; conditions: Leishmania donovani, Macrophage
L. major = experiment: BALB/c mouse lesion cure model of Old World cutaneous leishmaniasis; assay type: in vivo; conditions: BALB/c mice infected with L. major; 20 mg/kg b.i.d. PO, 10 days
Description: Data in the graph show progression of lesion sizes at the base of the tail of BALB/c mice infected with 1 × 10^7L. major parasites after 10 days of treatment. Experimental time points represent the mean lesion sizes ± SEM (n = 6). Single-factor ANOVA (Dunnet’s test) was used to determine the statistical significance of differences in lesion sizes between vehicle and compound-treated groups (P < 0.05).
Lesion cure model of Old World leishmaniasis (L. major). Female BALB/c mice (6 weeks old) were
used in this model. Mice were infected intradermally at base of the tail with 100 µl parasite culture
containing 1x107 L. major MHOM/IR/-/173 stationary phase promastigotes. Starting from the third week
post-infection, the lesion induration diameters (length=D1 and width=D2) were measured using a caliper
instrument (Fisher Scientific, USA) with 0.1 mm sensitivity. Length and width measurements were taken to account for asymmetrical lesions. Lesion size area was then calculated using the πR1*R2 formula
(where R1=D1/2 and R2 = D2/2). Lesions were measured at a 10 -day (+/- 2 days) interval until the end
of the study. Experimental endpoint is lesion cure or % lesion size re duction relative to lesion size in
vehicle-treated group. Lesion cure is considered 100% re-epithelialization of the lesion (lesion size = 0
10 mg/kg and 20 mg/kg twice-daily). In a positive control treatment group, animals were dosed by […]

[2] = brain/plasma exposure in mice; assay type: in vivo; conditions: mouse, brain, read-out: brain/plasma AUC ratio
[3] = pharmacokinetics in cynomolgus monkey; assay type: in vivo; conditions: male cynomolgus monkey
Description: In Vivo Intravenous PK Study in Non-human Primates. The IV PK study in non-human primates was carried out at Covance research facility in Greenfield, Indiana. The research facility is accredited by AAALAC (Association for Assessment and Accreditation of Laboratory Animal Care). The male Cynomolgus monkeys were approximately 4.5 years of age and weighed 4.2 to 5.0 kg. 1 was administered […]
75% polyethylene glycol (PEG300) as described in the earlier section. Doses were administered once by intravenous injection via the saphenous vein at a dose of 0.3 mg/kg with a dosing volume of 0.1 ml/kg.
Clinical observations and food consumption determinations were performed on all animals. Blood samples for PK analysis were collected from all animals via the femoral vein approximately 0.083, 0.25, […]
In Vivo Oral PK Study in Non-human Primates. The PO PK study in non-human primates was conducted at a Novartis facility using Non-naïve male Cynomolgus monkeys weighing 3.8 to 4.0 kg. The monkeys were fasted overnight and fed 2 hours post-dose. 1 was formulated in a suspension of 0.5% […]
gavaged with 5 mL/kg of the suspension for a total dose of 10 mg/kg. The gavage tubing was flushed with 5 mL of water to ensure the gavage tubing was cleared of the formulation. Blood samples for PK analysis were collected from all animals via the saphenous veins approximately 0.25, 0.5, 1, 2, 4, 7, 24, 48, and 72 hours post-dose.

hr Alpha2B = target: T1, hr Alpha2B (Homo sapiens, UniProt P18089); experiment: receptor profile (Table S4); assay type: binding
T1 sequence (P18089 1-450): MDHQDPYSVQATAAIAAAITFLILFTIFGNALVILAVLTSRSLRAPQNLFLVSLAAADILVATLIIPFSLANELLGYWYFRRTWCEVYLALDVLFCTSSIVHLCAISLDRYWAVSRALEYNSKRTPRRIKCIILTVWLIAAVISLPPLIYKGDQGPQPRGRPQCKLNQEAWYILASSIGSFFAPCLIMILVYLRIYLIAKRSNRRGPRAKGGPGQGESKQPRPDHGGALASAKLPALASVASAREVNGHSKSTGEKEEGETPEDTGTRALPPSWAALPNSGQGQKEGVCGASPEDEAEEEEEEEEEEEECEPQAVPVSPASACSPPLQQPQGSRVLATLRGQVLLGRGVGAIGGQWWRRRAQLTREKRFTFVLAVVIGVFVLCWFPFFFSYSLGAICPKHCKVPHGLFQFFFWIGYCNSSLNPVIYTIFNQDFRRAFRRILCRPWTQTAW

hr DAT = hr DAT (Homo sapiens, UniProt Q01959); experiment: receptor profile (Table S4); assay type: binding
rr AR ag = target: T2, rr AR ag (Rattus norvegicus, UniProt P15207); experiment: receptor profile (Table S4); assay type: biochemical
T2 sequence (P15207 1-902): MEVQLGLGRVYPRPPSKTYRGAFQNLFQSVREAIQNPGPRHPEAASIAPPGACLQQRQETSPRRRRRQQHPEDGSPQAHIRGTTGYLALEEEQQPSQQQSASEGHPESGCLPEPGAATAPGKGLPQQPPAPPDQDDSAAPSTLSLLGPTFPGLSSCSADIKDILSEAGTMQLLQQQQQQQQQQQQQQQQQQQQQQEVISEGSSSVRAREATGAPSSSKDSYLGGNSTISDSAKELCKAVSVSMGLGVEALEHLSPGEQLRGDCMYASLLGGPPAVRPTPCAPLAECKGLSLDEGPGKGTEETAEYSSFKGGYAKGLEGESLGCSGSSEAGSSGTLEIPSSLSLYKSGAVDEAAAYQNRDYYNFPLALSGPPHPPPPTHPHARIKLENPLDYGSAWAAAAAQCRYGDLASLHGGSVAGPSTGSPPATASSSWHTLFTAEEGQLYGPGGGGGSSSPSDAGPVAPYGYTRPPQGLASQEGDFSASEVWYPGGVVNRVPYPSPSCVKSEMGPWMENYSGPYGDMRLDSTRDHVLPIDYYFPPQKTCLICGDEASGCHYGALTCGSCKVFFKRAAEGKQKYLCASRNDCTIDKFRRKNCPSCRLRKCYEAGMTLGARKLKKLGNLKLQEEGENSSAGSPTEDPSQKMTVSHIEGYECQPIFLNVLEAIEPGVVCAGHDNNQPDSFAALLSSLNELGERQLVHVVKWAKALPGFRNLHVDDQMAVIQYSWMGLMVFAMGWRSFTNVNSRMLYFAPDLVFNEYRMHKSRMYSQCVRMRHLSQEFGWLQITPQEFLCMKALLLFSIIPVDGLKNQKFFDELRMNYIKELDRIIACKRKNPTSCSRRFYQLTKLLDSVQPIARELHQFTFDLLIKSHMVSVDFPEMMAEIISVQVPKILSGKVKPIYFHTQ

hr ERa antag = hr ERa antag (Homo sapiens, UniProt P03372); experiment: receptor profile (Table S4); assay type: biochemical
hr M3 = hr M3 (Homo sapiens, UniProt P20309); experiment: receptor profile (Table S4); assay type: binding
hr OpM = hr OpM (Homo sapiens, UniProt P35372); experiment: receptor profile (Table S4); assay type: binding
hr PDE4D = hr PDE4D (Homo sapiens, UniProt Q08499); experiment: receptor profile (Table S4); assay type: biochemical
in vivo = conditions: male, dog, plasma
Description: In Vivo PK Studies in Mice.
The solution was filtered using a 0.45 m syringe filter before dosing. Two male Balb/c mice were administered 1 intravenously via the lateral tail
vein at 5 mg/kg with a dose volume of 2.0 mL/kg. 1 was also formulated in a suspension of 0.5%
methylcellulose with 0.5% Tween 80 (0.5% MC/0.5% Tw80) in water at 2.5 mg/mL. A group of mice
(n=3) were administered 1 orally via gavage at 20 mg/kg with a dose volume of 8.0 mL/kg.
The mouse blood samples were centrifuged to separate plasma and the plasma samples were frozen at -
In Vivo PK Studies in Rats.
Two male Wistar rats were administered
1 intravenously via the lateral tail vein at 3 mg/kg with a dose volume of 1.0 mL/kg. 1 was also formulated
in a suspension of 0.5% methylcellulose with 0.5% Tween 80 (0.5% MC/0.5% Tw80) in water at 2.0
mg/mL. The second group of rats (n=3) were administered 1 orally via gavage at 10 mg/kg in suspension
with a dose volume of 5.0 mL/kg. Six blood samples of 100 μL each were collected serially from each
animal via the saphenous vein up to 24 hours after dosing. The rat blood samples were centrifuged to
separate plasma and the plasma samples were frozen at -20°C until analysis.
In Vivo PK Studies in Dogs.
The solution was filtered using a 0.45 m syringe filter before dosing. Three male Beagle dogs were administered 1 intravenously via saphenous
vein at 0.3 mg/kg with a dose volume of 0.1 mL/kg. 1 was also formulated in a suspension of 0.5%
methylcellulose with 0.5% Tween 80 (0.5%MC/0.5% Tween 80) in water at 1.0 mg/mL. The second
group of male dogs (n=2) were administered 1- orally via gavage at 1.0 mg/kg with a dose volume of 1.0
mL/kg. Seven blood samples of 250 µL each were collected serially from each animal via the jugular vein
The dog blood samples were centrifuged to separate plasma and the plasma
samples were frozen at -20 °C until analysis.

Chain of hr DAT (Q01959 whole entry): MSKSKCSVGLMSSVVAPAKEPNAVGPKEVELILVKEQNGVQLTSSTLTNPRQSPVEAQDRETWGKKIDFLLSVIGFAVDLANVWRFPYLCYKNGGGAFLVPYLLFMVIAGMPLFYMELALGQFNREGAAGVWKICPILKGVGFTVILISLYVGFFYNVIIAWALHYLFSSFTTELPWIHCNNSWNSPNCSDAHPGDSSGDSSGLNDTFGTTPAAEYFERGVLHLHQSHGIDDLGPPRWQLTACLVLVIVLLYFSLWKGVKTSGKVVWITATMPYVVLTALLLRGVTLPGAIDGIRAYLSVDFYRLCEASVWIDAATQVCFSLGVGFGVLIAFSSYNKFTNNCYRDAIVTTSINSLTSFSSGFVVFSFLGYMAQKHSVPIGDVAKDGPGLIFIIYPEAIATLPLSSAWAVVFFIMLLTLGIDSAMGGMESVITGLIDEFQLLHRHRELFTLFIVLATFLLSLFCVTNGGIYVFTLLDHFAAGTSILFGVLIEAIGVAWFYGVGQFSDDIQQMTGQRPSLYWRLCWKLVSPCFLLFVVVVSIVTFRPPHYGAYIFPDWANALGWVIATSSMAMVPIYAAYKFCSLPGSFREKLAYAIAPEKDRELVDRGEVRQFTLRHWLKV
Chain of hr ERa antag (P03372 whole entry): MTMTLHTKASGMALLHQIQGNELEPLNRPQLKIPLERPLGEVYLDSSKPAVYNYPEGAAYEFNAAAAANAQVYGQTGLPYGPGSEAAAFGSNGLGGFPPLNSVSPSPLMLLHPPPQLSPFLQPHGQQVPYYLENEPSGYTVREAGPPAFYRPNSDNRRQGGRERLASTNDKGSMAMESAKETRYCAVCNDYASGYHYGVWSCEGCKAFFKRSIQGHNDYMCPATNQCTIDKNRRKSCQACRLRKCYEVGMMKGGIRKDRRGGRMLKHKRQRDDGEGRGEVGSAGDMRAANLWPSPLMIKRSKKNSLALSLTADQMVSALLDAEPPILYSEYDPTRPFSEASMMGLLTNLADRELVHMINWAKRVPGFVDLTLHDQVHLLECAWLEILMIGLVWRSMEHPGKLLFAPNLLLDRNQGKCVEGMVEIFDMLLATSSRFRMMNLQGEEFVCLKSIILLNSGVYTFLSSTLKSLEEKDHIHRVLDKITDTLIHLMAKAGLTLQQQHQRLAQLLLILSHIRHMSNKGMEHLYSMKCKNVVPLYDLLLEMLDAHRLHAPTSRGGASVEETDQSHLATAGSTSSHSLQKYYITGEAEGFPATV
Chain of hr M3 (P20309 whole entry): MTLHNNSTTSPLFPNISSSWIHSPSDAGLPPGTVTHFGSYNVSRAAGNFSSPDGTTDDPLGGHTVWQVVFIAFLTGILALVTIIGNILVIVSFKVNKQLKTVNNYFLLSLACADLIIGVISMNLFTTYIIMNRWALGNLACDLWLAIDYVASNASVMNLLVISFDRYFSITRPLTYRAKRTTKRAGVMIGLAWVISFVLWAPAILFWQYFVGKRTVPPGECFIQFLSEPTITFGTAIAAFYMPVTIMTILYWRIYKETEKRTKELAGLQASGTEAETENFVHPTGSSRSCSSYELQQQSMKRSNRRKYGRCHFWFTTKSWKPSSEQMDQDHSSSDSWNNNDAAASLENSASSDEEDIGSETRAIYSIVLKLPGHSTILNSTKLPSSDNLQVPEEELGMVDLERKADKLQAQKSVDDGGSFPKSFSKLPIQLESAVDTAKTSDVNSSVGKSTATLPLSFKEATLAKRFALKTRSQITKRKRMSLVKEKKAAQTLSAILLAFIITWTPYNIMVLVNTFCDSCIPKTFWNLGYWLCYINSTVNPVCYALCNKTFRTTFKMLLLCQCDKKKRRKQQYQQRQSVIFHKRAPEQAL
Chain of hr OpM (P35372 whole entry): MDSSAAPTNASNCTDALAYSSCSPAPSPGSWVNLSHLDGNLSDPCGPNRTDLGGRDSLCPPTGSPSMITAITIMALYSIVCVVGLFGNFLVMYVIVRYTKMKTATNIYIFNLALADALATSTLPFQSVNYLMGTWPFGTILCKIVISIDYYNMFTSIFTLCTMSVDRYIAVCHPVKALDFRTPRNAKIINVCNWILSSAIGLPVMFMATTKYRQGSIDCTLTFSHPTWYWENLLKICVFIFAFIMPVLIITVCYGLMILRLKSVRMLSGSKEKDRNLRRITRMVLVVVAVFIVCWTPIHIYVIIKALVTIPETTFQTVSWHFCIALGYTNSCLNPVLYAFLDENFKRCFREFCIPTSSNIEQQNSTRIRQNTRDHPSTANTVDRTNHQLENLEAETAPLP
Chain of hr PDE4D (Q08499 whole entry): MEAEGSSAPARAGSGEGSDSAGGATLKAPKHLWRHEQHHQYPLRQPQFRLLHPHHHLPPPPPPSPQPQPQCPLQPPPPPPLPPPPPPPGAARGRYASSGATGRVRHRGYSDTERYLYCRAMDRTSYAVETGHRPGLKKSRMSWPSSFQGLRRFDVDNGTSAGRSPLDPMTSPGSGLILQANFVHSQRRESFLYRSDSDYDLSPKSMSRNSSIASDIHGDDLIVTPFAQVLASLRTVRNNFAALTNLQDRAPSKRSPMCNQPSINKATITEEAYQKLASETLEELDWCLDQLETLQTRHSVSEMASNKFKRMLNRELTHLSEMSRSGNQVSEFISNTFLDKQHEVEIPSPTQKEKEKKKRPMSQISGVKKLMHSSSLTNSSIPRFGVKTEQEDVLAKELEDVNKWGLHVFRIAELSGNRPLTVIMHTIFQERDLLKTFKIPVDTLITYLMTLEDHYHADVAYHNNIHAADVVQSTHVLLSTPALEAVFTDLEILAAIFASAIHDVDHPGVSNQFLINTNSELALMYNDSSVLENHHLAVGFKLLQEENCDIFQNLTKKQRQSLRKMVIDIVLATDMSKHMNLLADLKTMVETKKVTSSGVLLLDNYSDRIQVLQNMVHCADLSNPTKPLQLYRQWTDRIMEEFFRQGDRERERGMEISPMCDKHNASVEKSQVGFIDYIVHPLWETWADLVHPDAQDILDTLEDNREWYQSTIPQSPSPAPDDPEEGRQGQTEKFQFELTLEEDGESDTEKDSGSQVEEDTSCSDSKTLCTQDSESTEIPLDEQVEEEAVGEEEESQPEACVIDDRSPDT

Cc1nc(C)c(C(=O)Nc2ccc(F)c(-c3nc4ncc(-c5ncccc5C)cn4n3)c2)o1 [compound 1, N-(4-Fluoro-3-(6-(3-methylpyridin-2-yl)-[1,2,4]triazolo[1,5-a]pyrimidin-2-yl)phenyl)-2,4-dimethyloxazole-5-carboxamide]
EC50 [1]: 0.04 µM
therapeutic effect on skin lesions (L. major): comparable to that of liposomal amphotericin B
Kp [2]: 0.03
MRT ([3]; in vivo, 0.3 mg/kg IV): 9.7 h
bioavailability ([3]; in vivo, 0.3 mg/kg IV and 10 mg/kg PO): 27%
clearance ([3]; in vivo, 0.3 mg/kg IV, fumarate salt): 0.9 mL/min/kg
half-life ([3]; in vivo, 0.3 mg/kg IV, read-out: T1/2 IV (converted)): 9.7 h
Vd ([3]; in vivo, 0.3 mg/kg IV, read-out: Vss): 0.5 L/kg
DN AUC PO ([3]; 10 mg/kg PO, dose-normalized): 12 µM·h
DN Cmax PO ([3]; 10 mg/kg PO, dose-normalized): 1000 nM
EC50/IC50 (hr Alpha2B; hr Alpha2B): > 30 µM
inhibition at 10 µM (hr Alpha2B; read-out: % inh/act @ 10 µM): 13%
inhibition at 30 µM (hr Alpha2B; read-out: % inh/act @ 30 µM): 16%
EC50/IC50 (hr DAT; hr DAT): > 30 µM
inhibition at 10 µM (hr DAT; read-out: % inh/act @ 10 µM): 17%
inhibition at 30 µM (hr DAT; read-out: % inh/act @ 30 µM): 22%
inhibition at 10 µM (rr AR ag; read-out: % inh/act @ 10 µM): 1%
inhibition at 30 µM (rr AR ag; read-out: % inh/act @ 30 µM): 0%
EC50/IC50 (rr AR ag; rr AR ag): > 30 µM
EC50/IC50 (hr ERa antag; hr ERa antag): > 30 µM
inhibition at 10 µM (hr ERa antag; read-out: % inh/act @ 10 µM): -8%
inhibition at 30 µM (hr ERa antag; read-out: % inh/act @ 30 µM): -4%
EC50/IC50 (hr M3; hr M3): > 30 µM
inhibition at 10 µM (hr M3; read-out: % inh/act @ 10 µM): 17%
inhibition at 30 µM (hr M3; read-out: % inh/act @ 30 µM): 25%
EC50/IC50 (hr OpM; hr OpM): > 30 µM
inhibition at 10 µM (hr OpM; read-out: % inh/act @ 10 µM): 18%
inhibition at 30 µM (hr OpM; read-out: % inh/act @ 30 µM): 19%
EC50/IC50 (hr PDE4D; hr PDE4D): > 30 µM
inhibition at 10 µM (hr PDE4D; read-out: % inh/act @ 10 µM): 35%
inhibition at 30 µM (hr PDE4D; read-out: % inh/act @ 30 µM): 49%
bioavailability (in vivo; Beagle, po, 1 mg/kg): 44%
MRT (in vivo; beagle, iv, 0.3 mg/kg): 3.3 h
Vd (in vivo; beagle, iv, 0.3 mg/kg): 2.1 L/kg
clearance (in vivo; beagle, iv, 0.3 mg/kg): 11.6 mL/min/kg
half-life (in vivo; beagle, iv, 0.3 mg/kg): 3.8 h
